Read-outs that look alike come from different tables or passages of the source.
How the values were obtained:
[1] = target: full-length human HPK1 (MAP4K1) (Homo sapiens (Human), UniProt Q92918); assay: HPK1 Kinase Assay (Biochemical Assay), ADP-Glo; settings: GST-HPK1 3.2 nM, 10 μM ATP, MBP substrate, read-out: HPK1 enzymatic IC50
Method in brief: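 ADP-Glo luminescence after a 120-min kinase reaction gave percent inhibition and IC50. The enzyme was Sf21-expressed N-terminal GST full-length human HPK1 at 3.2 nM in HEPES pH 7.5 buffer with MgCl2, DTT, Brij-35 and BSA.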

[2] = target: HPK1 (SLP76 phosphorylation at Ser376 in Jurkat and EL-4 cells) (Homo sapiens, UniProt Q92918); type: cell-based
Chain of HPK1 (SLP76 phosphorylation at Ser376 in Jurkat and EL-4 cells) (Q92918 whole entry, looked up): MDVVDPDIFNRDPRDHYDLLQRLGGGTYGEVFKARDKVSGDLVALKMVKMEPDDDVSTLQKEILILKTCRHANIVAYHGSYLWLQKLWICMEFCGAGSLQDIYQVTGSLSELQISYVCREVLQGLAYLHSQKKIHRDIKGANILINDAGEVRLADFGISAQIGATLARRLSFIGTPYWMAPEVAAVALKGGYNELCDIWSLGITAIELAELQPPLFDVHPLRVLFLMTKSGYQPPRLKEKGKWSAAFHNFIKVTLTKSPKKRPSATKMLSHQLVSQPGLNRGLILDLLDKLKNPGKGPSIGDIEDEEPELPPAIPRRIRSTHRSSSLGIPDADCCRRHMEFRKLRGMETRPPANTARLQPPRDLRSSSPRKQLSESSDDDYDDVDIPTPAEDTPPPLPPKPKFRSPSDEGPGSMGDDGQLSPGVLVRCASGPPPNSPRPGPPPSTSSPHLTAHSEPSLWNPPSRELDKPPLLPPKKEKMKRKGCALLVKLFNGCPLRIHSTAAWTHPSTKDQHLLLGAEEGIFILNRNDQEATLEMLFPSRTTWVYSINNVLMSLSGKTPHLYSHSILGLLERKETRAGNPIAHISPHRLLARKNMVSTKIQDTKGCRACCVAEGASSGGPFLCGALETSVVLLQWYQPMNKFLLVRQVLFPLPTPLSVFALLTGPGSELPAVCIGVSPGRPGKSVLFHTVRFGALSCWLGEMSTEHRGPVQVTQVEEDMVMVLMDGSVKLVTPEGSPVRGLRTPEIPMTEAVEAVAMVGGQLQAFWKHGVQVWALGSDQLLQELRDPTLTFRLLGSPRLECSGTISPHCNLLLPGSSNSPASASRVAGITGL
Method in brief: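 Phospho-SLP76 (Ser376) in lysates measured by AlphaLISA for human Jurkat and by 19 h HTRF for mouse EL-4, giving % inhibition and IC50. Compounds applied 60 min before αCD3/αCD28 bead stimulation at 37 °C, lasting 15 min (Jurkat) or 30 min (EL-4).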

[3] = αCD3/αCD28 Dynabeads stimulated cells, pSLP76 (Ser376) detection; read-out: HPK1 pSLP76 IC50
[4] = read-out: HPK1 pSLP76 IC50; αCD3/αCD28 Dynabeads stimulated cells, pSLP76 (Ser376) detection

Chain of full-length human HPK1 (MAP4K1) (Q92918 whole entry): as the sequence (Q92918 whole entry, looked up) above

Row | IC50 [1] | IC50 [2, 3] | Compound | IC50 [2, 4]
1 | < 100 nM | < 500 nM | Cc1c(N2CCc3cnc(Nc4ccc(CS(C)(=O)=O)nc4)nc3C2)cnc2c1NCCO2 [Example 58, 6-(methanesulfonylmethyl)-N-(7-{8-methyl-1H,2H,3H-pyrido[2,3-b][1,4]oxazin-7-yl}-5H,6H,7H,8H-pyrido[3,4-d]pyrimidin-2-yl)pyridin-3-amine] | –
2 | < 100 nM | > 1000 nM | Cc1c(N2CCc3cnc(Nc4ccc(CN(C)C)cc4)nc3C2)cnc2c1NCCO2 [Example 59, N-{4-[(dimethylamino)methyl]phenyl}-7-{8-methyl-1H,2H,3H-pyrido[2,3-b][1,4]oxazin-7-yl}-5H,6H,7H,8H-pyrido[3,4-d]pyrimidin-2-amine; formic acid] | –
3 | < 100 nM | < 500 nM | CS(=O)(=O)Cc1ccc(Nc2ncc3c(n2)CN(c2cnc4c(c2Cl)NCCO4)CC3)cc1 [Example 63, 7-{8-chloro-1H,2H,3H-pyrido[2,3-b][1,4]oxazin-7-yl}-N-[4-(methanesulfonylmethyl)phenyl]-5H,6H,7H,8H-pyrido[3,4-d]pyrimidin-2-amine] | –
4 | < 100 nM | 500 to 1000 nM | Cc1c(N2CCc3cnc(Nc4cccc(CN5CCN(C)CC5)c4)nc3C2)cnc2c1NCCO2 [Example 66, 7-{8-methyl-1H,2H,3H-pyrido[2,3-b][1,4]oxazin-7-yl}-N-{3-[(4-methylpiperazin-1-yl)methyl]phenyl}-5H,6H,7H,8H-pyrido[3,4-d]pyrimidin-2-amine] | –
5 | < 100 nM | 500 to 1000 nM | Cc1c(N2CCc3cnc(Nc4ccnc(C(C)(C)O)c4)nc3C2)cnc2c1NCCO2 [Example 67, 2-{4-[(7-{8-methyl-1H,2H,3H-pyrido[2,3-b][1,4]oxazin-7-yl}-5H,6H,7H,8H-pyrido[3,4-d]pyrimidin-2-yl)amino]pyridin-2-yl}propan-2-ol] | –
6 | < 100 nM | < 500 nM | Cc1c(N2CCc3cnc(Nc4cc5n(n4)CC(=O)N(C)CC5)cc3C2)cnc2c1NCCO2 [Example 68, 6-methyl-2-[(6-{8-methyl-1H,2H,3H-pyrido[2,3-b][1,4]oxazin-7-yl}-5,6,7,8-tetrahydro-2,6-naphthyridin-3-yl)amino]-4H,5H,6H,7H,8H-pyrazolo[1,5-d][1,4]diazepin-7-one] | –
7 | < 100 nM | < 500 nM | COC(=O)Nc1ccc(Nc2ncc3c(n2)CN(c2cnc4c(c2C)NCCO4)CC3)cc1 [Example 71, methyl N-{4-[(7-{8-methyl-1H,2H,3H-pyrido[2,3-b][1,4]oxazin-7-yl}-5H,6H,7H,8H-pyrido[3,4-d]pyrimidin-2-yl)amino]phenyl}carbamate] | –
8 | < 100 nM | < 500 nM | Cc1c(N2CCc3cnc(Nc4ccnc(N5CCN(C)CC5)c4)nc3C2)cnc2c1NCCO2 [Example 72, N-(7-{8-methyl-1H,2H,3H-pyrido[2,3-b][1,4]oxazin-7-yl}-5H,6H,7H,8H-pyrido[3,4-d]pyrimidin-2-yl)-2-(4-methylpiperazin-1-yl)pyridin-4-amine] | –
9 | < 100 nM | 500 to 1000 nM | CC(=O)Nc1ccc(Nc2ncc3c(n2)CN(c2cnc4c(c2C)NCCO4)CC3)cn1 [Example 73, N-(5-((7-(8-methyl-2,3-dihydro-1H-pyrido[2,3-b][1,4]oxazin-7-yl)-5,6,7,8-tetrahydropyrido[3,4-d]pyrimidin-2-yl)amino)pyridin-2-yl)acetamide] | –
10 | < 100 nM | < 500 nM | CNC(=O)c1ccc(Nc2ncc3c(n2)CN(c2cnc4c(c2C)NCCO4)CC3)cc1F [Example 74, 2-fluoro-N-methyl-4-((7-(8-methyl-2,3-dihydro-1H-pyrido[2,3-b][1,4]oxazin-7-yl)-5,6,7,8-tetrahydropyrido[3,4-d]pyrimidin-2-yl)amino)benzamide] | –
11 | < 100 nM | < 500 nM | Cc1c(N2CCc3cnc(Nc4ccnc(C5CCOCC5)c4)nc3C2)cnc2c1NCCO2 [Example 76, 7-(8-methyl-2,3-dihydro-1H-pyrido[2,3-b][1,4]oxazin-7-yl)-N-(2-(tetrahydro-2H-pyran-4-yl)pyridin-4-yl)-5,6,7,8-tetrahydropyrido[3,4-d]pyrimidin-2-amine] | –
12 | < 100 nM | < 500 nM | Cc1c(N2CCc3cnc(Nc4ccnc(N5CCOCC5)c4)nc3C2)cnc2c1NCCO2 [Example 77, 7-(8-methyl-2,3-dihydro-1H-pyrido[2,3-b][1,4]oxazin-7-yl)-N-(2-morpholinopyridin-4-yl)-5,6,7,8-tetrahydropyrido[3,4-d]pyrimidin-2-amine] | –
13 | < 100 nM | < 500 nM | Cc1c(N2CCc3cnc(Nc4cccc(S(C)(=O)=O)c4)nc3C2)cnc2c1NCCO2 [Example 79, 7-(8-methyl-2,3-dihydro-1H-pyrido[2,3-b][1,4]oxazin-7-yl)-N-(3-(methylsulfonyl)phenyl)-5,6,7,8-tetrahydropyrido[3,4-d]pyrimidin-2-amine] | –
14 | < 100 nM | 500 to 1000 nM | CCc1cc(Nc2ncc3c(n2)CN(c2cnc4c(c2C)NCCO4)CC3)ccc1N1CCC(O)CC1 [Example 80, 1-(2-ethyl-4-((7-(8-methyl-2,3-dihydro-1H-pyrido[2,3-b][1,4]oxazin-7-yl)-5,6,7,8-tetrahydropyrido[3,4-d]pyrimidin-2-yl)amino)phenyl)piperidin-4-ol] | –
15 | < 100 nM | < 500 nM | Cc1c(N2CCc3cnc(Nc4ccc5c(c4)CS(=O)(=O)C5)nc3C2)cnc2c1NCCO2 [Example 81, 5-((7-(8-methyl-2,3-dihydro-1H-pyrido[2,3-b][1,4]oxazin-7-yl)-5,6,7,8-tetrahydropyrido[3,4-d]pyrimidin-2-yl)amino)-1,3-dihydrobenzo[c]thiophene 2,2-dioxide] | –
16 | < 100 nM | < 500 nM | Cc1c(N2CCc3cnc(Nc4cccc(C(C)(C)O)c4)nc3C2)cnc2c1NCCO2 [Example 82, 2-(3-((7-(8-methyl-2,3-dihydro-1H-pyrido[2,3-b][1,4]oxazin-7-yl)-5,6,7,8-tetrahydropyrido[3,4-d]pyrimidin-2-yl)amino)phenyl)propan-2-ol] | –
17 | < 100 nM | 500 to 1000 nM | COCCOc1ccc(Nc2ncc3c(n2)CN(c2cnc4c(c2C)NCCO4)CC3)cc1CO [Example 83, (2-(2-methoxyethoxy)-5-((7-(8-methyl-2,3-dihydro-1H-pyrido[2,3-b][1,4]oxazin-7-yl)-5,6,7,8-tetrahydropyrido[3,4-d]pyrimidin-2-yl)amino)phenyl)methanol] | –
18 | < 100 nM | < 500 nM | Cc1c(N2CCc3cnc(Nc4ccc5c(c4)CCOC5)nc3C2)cnc2c1NCCO2 [Example 84, N-(isochroman-6-yl)-7-(8-methyl-2,3-dihydro-1H-pyrido[2,3-b][1,4]oxazin-7-yl)-5,6,7,8-tetrahydropyrido[3,4-d]pyrimidin-2-amine] | –
19 | < 100 nM | > 1000 nM | Cc1c(N2CCc3cnc(Nc4ccc5c(c4)CNC5=O)nc3C2)cnc2c1NCCO2 [Example 85, 5-((7-(8-methyl-2,3-dihydro-1H-pyrido[2,3-b][1,4]oxazin-7-yl)-5,6,7,8-tetrahydropyrido[3,4-d]pyrimidin-2-yl)amino)isoindolin-1-one] | –
20 | 100 to 1000 nM | > 1000 nM | CN1CCc2ncc(Nc3ncc4c(n3)CN(c3cnc5c(c3)NCCO5)CC4)cc2C1 [Example 87, 7-(2,3-dihydro-1H-pyrido[2,3-b][1,4]oxazin-7-yl)-N-(6-methyl-5,6,7,8-tetrahydro-1,6-naphthyridin-3-yl)-5,6,7,8-tetrahydropyrido[3,4-d]pyrimidin-2-amine] | –
21 | < 100 nM | 500 to 1000 nM | Cc1c(N2CCc3cnc(Nc4ccc(OC[C@@H]5COCCO5)cc4)nc3C2)cnc2c1NCCO2 [Example 90, (S)—N-(4-((1,4-dioxan-2-yl)methoxy)phenyl)-7-(8-methyl-2,3-dihydro-1H-pyrido[2,3-b][1,4]oxazin-7-yl)-5,6,7,8-tetrahydropyrido[3,4-d]pyrimidin-2-amine] | –
22 | < 100 nM | < 500 nM | Cc1c(N2CCc3cnc(Nc4ccc(N5CCC(O)CC5)c(CC#N)c4)nc3C2)cnc2c1NCCO2 [Example 91, 2-(2-(4-hydroxypiperidin-1-yl)-5-((7-(8-methyl-2,3-dihydro-1H-pyrido[2,3-b][1,4]oxazin-7-yl)-5,6,7,8-tetrahydropyrido[3,4-d]pyrimidin-2-yl)amino)phenyl)acetonitrile] | –

Row | Compound | IC50 [1] | IC50 [2, 3] | IC50 [2, 4]
23 | Cc1c(N2CCc3cnc(Nc4cccc(CN5CCOCC5)c4)nc3C2)cnc2c1NCCO2 [Example 60, 7-{8-methyl-1H,2H,3H-pyrido[2,3-b][1,4]oxazin-7-yl}-N-{3-[(morpholin-4-yl)methyl]phenyl}-5H,6H,7H,8H-pyrido[3,4-d]pyrimidin-2-amine] | < 100 nM | – | 500 to 1000 nM
24 | Cc1c(N2CCc3cnc(Nc4cccc(N5CCN(C)CC5)c4)nc3C2)cnc2c1NCCO2 [Example 61, 7-{8-methyl-1H,2H,3H-pyrido[2,3-b][1,4]oxazin-7-yl}-N-[3-(4-methylpiperazin-1-yl)phenyl]-5H,6H,7H,8H-pyrido[3,4-d]pyrimidin-2-amine] | < 100 nM | – | 500 to 1000 nM
25 | Cc1c(N2CCc3cnc(Nc4ccc(CS(C)(=O)=O)cc4)nc3C2)cnc2c1NCCO2 [Example 69, N-[4-(methanesulfonylmethyl)phenyl]-7-{8-methyl-1H,2H,3H-pyrido[2,3-b][1,4]oxazin-7-yl}-5H,6H,7H,8H-pyrido[3,4-d]pyrimidin-2-amine] | < 100 nM | < 500 nM | –

Reference: patent US20240025922A1, “TETRAHYDROPYRIDO[3,4-d]PYRIMIDINES AS HPK1 INHIBITORS” (Merck Patent GmbH, priority 2022, published 2024)
